Non-standard residues stand in square brackets, D forms with d. Residues, ends and D or L forms follow the SMILES beside them. *: point of attachment. Sta = CC(C)C[C@H](N)[C@@H](O)CC(=O)O; Isovaleryl = CC(C)CC(=O)*
Tests used:
pepsin = conditions: Umezawa et al, J. Antibiot. 1970; cited from earlier work
cathepsin D = conditions: Umezawa et al, J. Antibiot. 1970; cited from earlier work
renin = conditions: Umezawa et al, J. Antibiot. 1970; cited from earlier work
blood pressure = conditions: after the injection of hog renin into nephrectomized rats; Gross et al, Science 1971; cited from earlier work
human renin = biological target: T1, human renin (Homo sapiens, UniProt P00797); experiment: Human Renin Inhibition in vitro (angiotensin I by radioimmunoassay); assay type: biochemical; conditions: pH 7.4, two hours at 37° C.
T1 construct: purchased National Institute for Biological Standards, London
T1 sequence (P00797 67-406): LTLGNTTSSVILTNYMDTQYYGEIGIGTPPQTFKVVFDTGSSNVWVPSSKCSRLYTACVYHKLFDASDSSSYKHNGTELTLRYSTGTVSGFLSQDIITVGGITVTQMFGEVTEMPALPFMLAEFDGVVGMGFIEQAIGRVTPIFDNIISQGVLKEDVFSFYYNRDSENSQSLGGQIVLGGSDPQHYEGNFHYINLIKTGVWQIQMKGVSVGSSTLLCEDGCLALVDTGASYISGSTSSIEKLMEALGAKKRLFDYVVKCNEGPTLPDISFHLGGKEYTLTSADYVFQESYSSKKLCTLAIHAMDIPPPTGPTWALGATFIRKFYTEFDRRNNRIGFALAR
Experimental: Compounds of Formula I were evaluated as inhibitors of human renin in an in vitro assay, as follows: This human renin inhibition test has been previously described in detail [Papaioannou et al., Clinical and Experimental Hypertension, A7(9), 1243-1257 (1985)]. Human renin was obtained from the National Institute for Biological Standards, London. An incubation mixture was prepared containing the following components: in a total volume of 0.25 mL: 100 mM Tris-acetate buffer at pH 7.4, 25×10-6 Goldblatt units of renin, 0.05 mL of plasma from human volunteers taking oral contraceptives, 6.0 mM Na-EDTA, 2.4 mM phenylmethyl sulfonyl fluoride, 1.5 mM 8-hydroxyquinoline, 0.4 mg/mL bovine serum albumin (BSA), and 0.024 mg/mL neomycin sulfate. This mixture was incubated for two hours at 37° C. in the presence or absence of renin inhibitors. The produced angiotensin I was determined by radioimmunoassay (New England Nuclear kit). Test compounds to be assayed were dissolved in DMSO and diluted with 100 mM Tris-acetate buffer at pH 7.4 containing 0.5% BSA to the appropriate concentration. The final concentration of organic solvent in the reaction mixture was less than 1%. Control incubations at 37° C. were used to correct for effects of organic solvent on renin activity.

For `CC(C)CC(=O)N[C@H](C(=O)N[C@H](C(=O)N[C@@H](CC(C)C)[C@@H](O)CC(=O)N[C@@H](C)C(=O)N[C@@H](CC(C)C)[C@@H](O)CC(=O)O)C(C)C)C(C)C` [pepstatin] (Isovaleryl-VV[Sta]A[Sta]-OH), the “inhibitor of aspartyl proteases: pepsin” value (pepsin) is given as “inhibitor of aspartyl proteases such as pepsin”, the “inhibitor of aspartyl proteases: cathepsin D” value (cathepsin D) is given as “inhibitor of aspartyl proteases such as pepsin, cathepsin D” and the “inhibitor of aspartyl proteases: renin” value (renin) is given as “inhibitor of aspartyl proteases such as pepsin, cathepsin D and renin”. The “reduce blood pressure in vivo” value (blood pressure) was “found to reduce blood pressure in vivo”.

For `C#CC[C@H](O)[C@H](O)[C@H](CC1CCCCC1)NC(=O)[C@H](Cc1cscn1)NC(=O)[C@@H](CC(=O)N(C)CCN(C)C)Cc1ccccc1` [Example 1, N^1-[2-[[1S,1R*-(cyclohexylmethyl-2S*,3R*-dihydroxy-5-hexynyl]amino]-2-oxo-1R*-(4-thiazolylmethyl)ethyl]-N^4-[2-(dimethylamino)ethyl]-N^4-methyl-2S*-(phenylmethyl)butanediamide], the IC50 (human renin) was 28 nM.

— patent US5508295A, “Use of amino acyl amino propargyl diol compounds for treatment of glaucoma” (G. D. Searle & Co., priority 1994, dated 1996)
